From the NIST ThermoML archive (doi:10.1016/j.tca.2013.10.028)

Columns and labels:
[1] = refractive index (Na D-line) (dimensionless); an = ratio of the nth substance listed; details: 101 kPa, Liquid, Standard Abbe refractometry
[2] = an = ratio of the nth substance listed; details: for surface tension liquid-gas: Ring tensiometer; for electrical conductivity / viscosity / mass density: 101 kPa, Liquid; for electrical conductivity: Alternating current cell with electrodes; for viscosity: Capillary tube (Ostwald / Ubbelohde) method; for mass density: Vibrating tube method

OCC(O)CO [glycerol] + O=C([O-])[O-].[K+].[K+]
Details	electrical conductivity, [2] [S/m]	mass density, [2] [kg/m3]	refractive index, [1]	surface tension liquid-gas, [2] [mN/m]	viscosity, [2] [mPa·s]
293.15 K, a1 = 4	0.0008	1477.9	1.4922	50.6	28104
293.15 K, a1 = 5	0.0034	1447.2	1.491	64.4	18018
293.15 K, a1 = 6	0.0052	1423.6	1.4897	69.5	5500
303.15 K, a1 = 4	0.003	1472	1.4906	46.1	10100
303.15 K, a1 = 5	0.0082	1441.4	1.4894	59.1	8899
303.15 K, a1 = 6	0.0112	1417.8	1.4882	66.8	3500
313.15 K, a1 = 4	0.0069	1466.1	1.4888	45.2	3330
313.15 K, a1 = 5	0.0154	1435.5	1.488	56.7	3440
313.15 K, a1 = 6	0.0247	1411.9	1.4866	65.6	1710
323.15 K, a1 = 4	0.0162	1460.2	1.4862	44.4	1400
323.15 K, a1 = 5	0.0371	1429.6	1.4853	55.3	1418
323.15 K, a1 = 6	0.0393	1405.9	1.4845	64	767
333.15 K, a1 = 4	0.0313	1454.1	1.4857	43.4	663
333.15 K, a1 = 5	0.076	1423.4	1.4839	54.7	646
333.15 K, a1 = 6	0.121	1399.8	1.4827	63	378
343.15 K, a1 = 4	0.0583	1448.1	1.4846	42.6	323
343.15 K, a1 = 5	0.139	1417.5	1.4818	53.7	323
343.15 K, a1 = 6	0.163	1393.8	1.4808	62.2	203
353.15 K, a1 = 4	0.204	1442.2	1.4839	41.6	200
353.15 K, a1 = 5	0.313	1411.4	1.4783	51.3	178
353.15 K, a1 = 6	0.341	1387.7	1.4789	61.5	115

O=C([O-])[O-].[K+].[K+] [potassium carbonate] + OCCO
Details	electrical conductivity, [2] [S/m]	mass density, [2] [kg/m3]	refractive index, [1]	surface tension liquid-gas, [2] [mN/m]	viscosity, [2] [mPa·s]
293.15 K, a2 = 6	0.22	1338.8	1.4598	28.4	227
293.15 K, a2 = 7	0.238	1314	1.4565	28.3	149
293.15 K, a2 = 8	0.231	1295.5	1.457	27.8	117
303.15 K, a2 = 6	0.34	1332.1	1.4576	27.8	120
303.15 K, a2 = 7	0.425	1307.3	1.4548	27.7	81
303.15 K, a2 = 8	0.365	1288.8	1.4556	27.3	66
313.15 K, a2 = 6	0.51	1325.3	1.455	27.3	69
313.15 K, a2 = 7	0.537	1300.6	1.4525	27.2	49
313.15 K, a2 = 8	0.531	1282.1	1.4536	26.7	40
323.15 K, a2 = 6	0.78	1318.5	1.4533	26.8	42
323.15 K, a2 = 7	0.801	1293.8	1.4507	26.7	31
323.15 K, a2 = 8	0.73	1275.3	1.4513	26.1	26
333.15 K, a2 = 6	1.17	1311.7	1.4519	26.1	28
333.15 K, a2 = 7	1.18	1287	1.449	26	21
333.15 K, a2 = 8	1.04	1268.5	1.4496	25.5	18
343.15 K, a2 = 6	1.51	1304.9	1.4485	25.5	20
343.15 K, a2 = 7	1.53	1280.1	1.4459	25.3	15
343.15 K, a2 = 8	1.4	1261.7	1.4469	24.8	13
